This passage reports melting point, inhibition and IC50 results from patent publication US20010044445A1, “AZOLE INHIBITORS OF CYTOKINE PRODUCTION” (priority 1999, published 2001).

By melting point is commonly meant the temperature of the solid-liquid transition. The pIC50 is the IC50 on a negative log10 scale, so that one unit is a factor of ten. Higher therefore signals a low IC50.

Series [1] relates to Human peripheral blood mononuclear cells. Kind of series: Human Concanavalin-A Proliferation Assay (Con HU Assay). The series is classed as cell-based. Conditions: Homo sapiens, PBMC, concanavalin-A stimulated human PBMC; for inhibition at 10 µM / inhibition at 1 µM: 72 h, 3 days, read-out: % Inhibition of proliferation (at concentrations of 1,10, or 100 μm); for inhibition at 10 µM: concentration 10 μm (in parentheses in the cell); for pIC50: tritiated thymidine; for inhibition at 1 µM: concentration 1 μm (in parentheses in the cell). Put shortly:
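Proliferation read as tritiated thymidine uptake (0.5 μCi/well, 6 h pulse on day 3) in human PBMC cultured 3 days with 2.5 μg/ml (final) concanavalin-A. Cells, 50,000 per well in supplemented RPMI 1640 with 10% FBS, received compound 15 min before mitogen.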

SMILES strings stand for the structures. pIC50: −log10 of the molar value.

Regarding `N#Cc1ccccc1NC(=O)c1ccc(-n2nc(C(F)(F)F)cc2C(F)(F)F)cc1` [Example 188, 4-[3,5-Bis(trifluoromethyl)-1H-pyrazol-1-yl]-N-(2-cyanophenyl)benzamide], the melting point lay within 203 to 205 °C. Moreover, in series [1], the inhibition at 10 µM worked out at 87% and the negative-log IC50 (pIC50) was 6.31.
`Cc1nc(C)n(-c2ccc(NC(=O)c3c(C)noc3C)cc2)n1` [Example 189, 3,5-dimethyl-N-[4-(3,5-dimethyl-1H-1,2,4-triazol-1-yl)phenyl]-4-isoxazolecarboxamide] registered a melting point of 170 to 171 °C. Moreover, the inhibition at 1 µM in series [1] is 24%.
`O=C(Nc1ccccc1[N+](=O)[O-])c1ccc(-n2nc(C(F)(F)F)cc2C(F)(F)F)cc1` [Example 190, 4-[3,5-Bis(trifluoromethyl)-1H-pyrazol-1-yl]-N-(2-nitrophenyl)benzamide] registered a melting point of 173 to 175 °C. Moreover, in series [1], the inhibition at 1 µM was determined as 3%.
`O=C(Nc1c(F)cccc1F)c1ccc(-n2nc(C(F)(F)F)cc2C(F)(F)F)cc1` [Example 191, 4-[3,5-Bis(trifluoromethyl)-1H-pyrazol-1-yl]-N-(2,6-difluorophenyl)benzamide]: the melting point was in the range of 187 to 188 °C. In addition, in series [1], the inhibition at 1 µM stood at 99% and the pIC50 was 6.94.
For the molecule `N#Cc1ccc(NC(=O)c2ccc(-n3nc(C(F)(F)F)cc3C(F)(F)F)cc2)cc1` [Example 193, 4-[3,5-Bis(trifluoromethyl)-1H-pyrazol-1-yl]-N-(4-cyanophenyl)benzamide], the melting point lay within 192 to 193 °C. Further, the inhibition at 1 µM in series [1] was determined as 8%.
`O=C(Nc1ccncc1)c1ccc(-n2nc(C(F)(F)F)cc2C(F)(F)F)cc1` [Example 194, 4-[3,5-Bis(trifluoromethyl)-1H-pyrazol-1-yl]-N-(4-pyridinyl)benzamide] came in with a melting point of 234 to 235 °C. Further, in series [1], the inhibition at 1 µM is 23%.
The corresponding values for `O=C(Nc1ccc(-n2nc(C(F)(F)F)cc2C(F)(F)F)cc1)c1ccc(F)c(C(F)(F)F)c1` [Example 195, N-[4-[3,5-bis(trifluoromethyl)-1H-pyrazol-1-yl]phenyl]-4-fluoro-3-(trifluoromethyl)benzamide] are 142 to 144 °C and 22%.
The corresponding values for `NC(=O)c1ccccc1NC(=O)c1ccc(-n2nc(C(F)(F)F)cc2C(F)(F)F)cc1` [Example 196, N-[2-(aminocarbonyl)phenyl]-4-[3,5-bis(trifluoromethyl)-1H-pyrazol-1-yl]benzamide] are 195 to 196 °C and 11%.
The corresponding values for `O=C(Cc1ccc(Cl)cc1)Nc1cccc(-n2nc(C(F)(F)F)cc2C(F)(F)F)c1` [Example 197, N-[3-[3,5-bis(trifluoromethyl)-1H-pyrazol-1-yl]phenyl]-4-chlorobenzeneacetamide] are 209 to 211 °C and 1%.
For `O=C(Nc1cccc(-n2nc(C(F)(F)F)cc2C(F)(F)F)c1)c1cccc(Cl)c1Cl` [Example 198, N-[3-[3,5-bis(trifluoromethyl)-1H-pyrazol-1-yl]phenyl]-2,3-dichlorobenzamide], the melting point was in the range of 119 to 121 °C. For the same molecule, the inhibition at 1 µM in series [1] was 4%.
`O=C(Nc1cccc(-n2nc(C(F)(F)F)cc2C(F)(F)F)c1)c1cc([N+](=O)[O-])ccc1Cl` [Example 199, N-[3-[3,5-bis(trifluoromethyl)-1H-pyrazol-1-yl]phenyl]-2-chloro-5-nitrobenzamide] displayed a melting point of 147 to 152 °C. Moreover, in series [1], the inhibition at 1 µM was 30%.
The corresponding values for `O=C(Nc1ccc(-n2nc(C(F)(F)F)cc2C(F)(F)F)cc1)c1ccc(F)c([N+](=O)[O-])c1` [Example 200, N-[4-[3,5-bis(trifluoromethyl)-1H-pyrazol-1-yl]phenyl]-4-fluoro-3-nitrobenzamide] are 186 to 187 °C and 26%.
In turn, `O=C(Nc1ccc(-n2nc(C(F)(F)F)cc2C(F)(F)F)cc1)c1ccc(F)cc1C(F)(F)F` [Example 201, N-[4-[3,5-bis(trifluoromethyl)-1H-pyrazol-1-yl]phenyl]-4-fluoro-2-(trifluoromethyl)benzamide] returned a melting point of 178 to 179 °C. In series [1], the inhibition at 10 µM was determined as 100% and the pIC50 was 6.44.
As to `O=C(Nc1cccc(-n2nc(C(F)(F)F)cc2C(F)(F)F)c1)c1ccc(F)cc1` [Example 202, N-[3-[3,5-bis(trifluoromethyl)-1H-pyrazol-1-yl]phenyl]-4-fluorobenzamide], the melting point was 150 to 152 °C. Further, the inhibition at 1 µM in series [1] came out at 6%.
The corresponding values for `O=C(Nc1cccc(-n2nc(C(F)(F)F)cc2C(F)(F)F)c1)c1ccc(F)cc1F` [Example 203, N-[3-[3,5-bis(trifluoromethyl)-1H-pyrazol-1-yl]phenyl]-2,4-difluorobenzamide] are 133 to 134 °C and 1%.
Molecule `N#Cc1cccc(C(=O)Nc2cccc(-n3nc(C(F)(F)F)cc3C(F)(F)F)c2)c1` [Example 204, N-[3-[3,5-bis(trifluoromethyl)-1H-pyrazol-1-yl]phenyl]-3-cyanobenzamide] registered a melting point of 160 to 161 °C. Moreover, the inhibition at 1 µM in series [1] was 12%.
Turning to `O=C(Nc1ccc(-n2nc(C(F)(F)F)cc2C(F)(F)F)cc1)c1ccc(F)cc1Cl` [Example 206, N-[4-[3,5-bis(trifluoromethyl)-1H-pyrazol-1-yl]phenyl]-2-chloro-4-fluorobenzamide], the melting point lay in the range of 155 to 157 °C. Also, in series [1], the inhibition at 10 µM stood at 100% and the negative logarithm of the IC50 (pIC50) is 7.21.
The corresponding values for `CS(=O)(=O)c1ccc(C(=O)Nc2ccc(-n3nc(C(F)(F)F)cc3C(F)(F)F)cc2)c(Cl)c1` [Example 207, N-[4-[3,5-bis(trifluoromethyl)-1H-pyrazol-1-yl]phenyl]-2-chloro-4-(methylsulfonyl)benzamide] are 219 to 220 °C, 100% and 6.43.
`O=C(Nc1ccc(-n2nc(C(F)(F)F)cc2C(F)(F)F)cc1)c1cc(Cl)ccc1Cl` [Example 208, N-[4-[3,5-bis(trifluoromethyl)-1H-pyrazol-1-yl]phenyl]-2,5-dichlorobenzamide] registered a melting point of 154 to 156 °C. In series [1], the inhibition at 10 µM is 99% and the pIC50 is 6.83.
`O=C(Nc1ccc(-n2nc(C(F)(F)F)cc2C(F)(F)F)cc1)c1ccc(F)c(Cl)c1` [Example 210, N-[4-[3,5-bis(trifluoromethyl)-1H-pyrazol-1-yl]phenyl]-3-chloro-4-fluorobenzamide] had a melting point of 138 to 139 °C. Also, in series [1], the inhibition at 10 µM is 100% and the pIC50 is 6.62.
`O=C(Nc1ccc(-n2nc(C(F)(F)F)cc2C(F)(F)F)cc1)c1cc(F)ccc1F` [Example 211, N-[4-[3,5-bis(trifluoromethyl)-1H-pyrazol-1-yl]phenyl]-2,5-difluorobenzamide] showed a melting point of 168 to 169 °C. Moreover, in series [1], the inhibition at 10 µM amounted to 98% and the pIC50 is 7.41.
Regarding `O=C(Nc1ccc(-n2nc(C(F)(F)F)cc2C(F)(F)F)cc1)c1c(F)cccc1Cl` [Example 212, N-[4-[3,5-bis(trifluoromethyl)-1H-pyrazol-1-yl]phenyl]-2-chloro-6-fluorobenzamide], the melting point fell in the range of 165 to 167 °C. Further, in series [1], the inhibition at 10 µM is 99% and the pIC50 was 7.15.
In turn, `O=C(Nc1ccc(-n2nc(C(F)(F)F)cc2C(F)(F)F)cc1)c1c(F)cccc1C(F)(F)F` [Example 213, N-[4-[3,5-bis(trifluoromethyl)-1H-pyrazol-1-yl]phenyl]-2-fluoro-6-(trifluoromethyl)benzamide] gave a melting point of 175 to 176 °C. In addition, in series [1], the inhibition at 10 µM came to 100% and the pIC50 was 6.36.
The corresponding values for `O=C(Nc1ccc(-n2nc(C(F)(F)F)cc2C(F)(F)F)cc1)c1cccc(Cl)c1F` [Example 214, N-[4-[3,5-bis(trifluoromethyl)-1H-pyrazol-1-yl]phenyl]-3-chloro-2-fluorobenzamide] are 113 to 116 °C, 100% and 7.17.
The molecule `COc1ccc(C(=O)Nc2ccc(-n3nc(C(F)(F)F)cc3C(F)(F)F)cc2)c(Cl)c1` [Example 215, N-[4-[3,5-bis(trifluoromethyl)-1H-pyrazol-1-yl]phenyl]-2-chloro-4-methoxybenzamide] came in with a melting point of 140 to 143 °C. In addition, in series [1], the inhibition at 10 µM was found to be 100% and the pIC50 is 6.90.
The corresponding values for `O=C(Nc1ccc(-n2nc(C(F)(F)F)cc2C(F)(F)F)cc1)c1c(Cl)ccc([N+](=O)[O-])c1Cl` [Example 216, N-[4-[3,5-bis(trifluoromethyl)-1H-pyrazol-1-yl]phenyl]-2,6-dichloro-3-nitrobenzamide] are 160 to 161 °C, 100% and 6.57.
`O=C(Nc1ccc(-n2nc(C(F)(F)F)cc2C(F)(F)F)cc1)c1ccc(F)c(F)c1` [Example 218, N-[4-[3,5-bis(trifluoromethyl)-1H-pyrazol-1-yl]phenyl]-3,4-difluorobenzamide] returned a melting point of 183 to 185 °C. In series [1], the inhibition at 10 µM came out at 100% and the pIC50 is 6.87.
In turn, `COc1ccc(Br)c(C(=O)Nc2ccc(-n3nc(C(F)(F)F)cc3C(F)(F)F)cc2)c1` [Example 219, N-[4-[3,5-bis(trifluoromethyl)-1H-pyrazol-1-yl]phenyl]-2-bromo-5-methoxybenzamide] came in with a melting point of 179 to 181 °C. For the same molecule, in series [1], the inhibition at 10 µM came to 100% and the pIC50 was 6.67.
